Results reported in patent US20230116972A1, “CD38 MODULATORS AND METHODS OF USE THEREOF” (Cytokinetics, Inc., priority 2021, published 2023).
Where two headings read alike, the source gives them in different places.

Key:
mouse CD38 = biological target: T1, mouse CD38 (Mus musculus, UniProt P56528); assay: mouse recombinant CD38 enzyme assay (hydrolysis of NAD+); assay type: biochemical; conditions: read-out: mCD38 BioChem IC50
T1 sequence (P56528 1-304): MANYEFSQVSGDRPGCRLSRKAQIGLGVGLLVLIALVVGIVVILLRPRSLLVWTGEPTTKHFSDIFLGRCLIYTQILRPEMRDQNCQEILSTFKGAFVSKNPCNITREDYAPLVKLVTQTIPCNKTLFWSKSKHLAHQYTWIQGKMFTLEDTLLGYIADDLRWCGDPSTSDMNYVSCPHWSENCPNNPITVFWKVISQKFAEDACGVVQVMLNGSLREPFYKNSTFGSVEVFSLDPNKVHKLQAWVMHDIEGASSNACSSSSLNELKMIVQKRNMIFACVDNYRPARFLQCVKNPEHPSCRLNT
Method in brief: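 Residual substrate after a one-hour room-temperature incubation of recombinant CD38 with NAD+ and test compound is measured by an ADH/diaphorase coupled resorufin signal (540 nm excitation, 590 nm emission); reduced NAD+ consumption reflects inhibition.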

[1] = biological target: T2, endogenous CD38 in HL60 cells (Homo sapiens, UniProt P28907); assay: cellular CD38 assay in HL60 cells (cellular NAD levels); assay type: cell-based; conditions: all-trans retinoic acid, 24 hours, read-out: hCD38 HL60 ATRA NAD Cell Diaphorase IC50
T2 construct: endogenous in cells; host or cells: HL60 (leukemic cells, treated with all-trans retinoic acid)
T2 sequence (P28907 1-300): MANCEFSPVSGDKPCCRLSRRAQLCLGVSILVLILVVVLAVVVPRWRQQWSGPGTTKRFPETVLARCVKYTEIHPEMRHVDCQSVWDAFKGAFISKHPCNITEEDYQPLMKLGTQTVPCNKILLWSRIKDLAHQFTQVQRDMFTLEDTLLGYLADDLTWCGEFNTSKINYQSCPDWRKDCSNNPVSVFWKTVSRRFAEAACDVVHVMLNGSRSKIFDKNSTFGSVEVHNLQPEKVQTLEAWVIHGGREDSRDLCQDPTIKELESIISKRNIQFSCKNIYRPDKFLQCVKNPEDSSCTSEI
Method in brief: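 Endogenous CD38 inhibition is inferred from NAD levels in HL60 cells after 24 h compound exposure at 20000 cells per well. A lytic cycling readout (0.2 U/mL diaphorase, 0.8 U/mL alcohol dehydrogenase, resazurin, FMN, ethanol, 0.2% Triton X-100, Tris/EDTA pH 8.4) ran 60 min at ambient temperature. Resorufin fluorescence was read at 540/590 nm.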

CYP3A4 = biological target: T3, CYP3A4 (Homo sapiens, UniProt P08684); assay: direct inhibition of CYP450 in human liver microsomes (midazolam and testosterone probes); assay type: in vitro ADME
T3 construct: from tissue; host or cells: human liver microsomes (pooled in the time-dependent assay)
Procedure: (§1) Direct inhibition: […] A Perspective of the Pharmaceutical Research and Manufacturers of America”, Drug Metabolism and Disposition, 37 (7): 1355, 2009). For 3A4, the % activity was measured using both midazolam and testosterone as probes. Each compound at 3, 10, and 50 μM was incubated with HLM, NADPH and CYP isoenzyme specific probe substrates at 37° C. Inhibition of the probe substrate metabolism was quantified using LC/MS/MS. […] Known chemical inhibitors specific for the individual CYP isoenzymes were evaluated in parallel as positive controls and these compounds produced CYP inhibition consistent with published results (Walsky & Obach RS. “Validated assays for human cytochrome P450 activities”. Drug Metab Dispos. 32(6):647-60, 2004). Note that, in Tables 6 and 7, the “Compound No” corresponds to the compound numbers in Table 1.

[2] = test system: human hepatic cytochrome P450 isozymes (CYP1A2, 2B6, 2C8, 2C9, 2C19, 2D6, and 3A4); assay: time dependent inhibition, statement over all isozymes tested; assay type: in vitro ADME; conditions: any isozymes; pooled human microsomes; no indication of time dependent inhibition
Procedure: Time dependent inhibition: An assessment of the time-dependent Inhibitory potential of test compounds against the principal human cytochrome P450 isozymes was carried out using standard methods (Grimm et al, “The Conduct of in Vitro Studies to Address Time-Dependent Inhibition of Drug-Metabolizing Enzymes: A Perspective of the Pharmaceutical Research and Manufacturers of America”, Drug Metabolism and Disposition, 37 (7): 1355, 2009). […] Each compound was pre-incubated at 37° C. plus and minus NADPH for 30 min, and with 0 min pre-incubation for assessment of potential time dependent inhibition. LC-MS/MS was used to quantify metabolite formation. […] Note that, in Tables 8 and 9, the “Compound No” corresponds to the compound numbers in Table 1.

CYP2D6 = biological target: T4, CYP2D6 (Homo sapiens, UniProt P10635); assay: direct inhibition of CYP450 in human liver microsomes; assay type: in vitro ADME; conditions: for activity at 3 µM / activity at 10 µM / activity at 50 µM: % of non-inhibited control, read-out: CYP2D6 T0 % activity; for IC50: estimated from 3, 10, 50 uM, read-out: CYP2D6 T0 estimated IC50
T4 construct: from tissue; host or cells: human liver microsomes (pooled in the time-dependent assay)
Procedure: as §1

[3] = midazolam probe, read-out: CYP3A4-M T0 % activity
[4] = testosterone probe, read-out: CYP3A4-T T0 % activity
[5] = midazolam probe, read-out: CYP3A4-M T0 estimated IC50
[6] = testosterone probe, read-out: CYP3A4-T T0 estimated IC50

T4 sequence (P10635 whole entry): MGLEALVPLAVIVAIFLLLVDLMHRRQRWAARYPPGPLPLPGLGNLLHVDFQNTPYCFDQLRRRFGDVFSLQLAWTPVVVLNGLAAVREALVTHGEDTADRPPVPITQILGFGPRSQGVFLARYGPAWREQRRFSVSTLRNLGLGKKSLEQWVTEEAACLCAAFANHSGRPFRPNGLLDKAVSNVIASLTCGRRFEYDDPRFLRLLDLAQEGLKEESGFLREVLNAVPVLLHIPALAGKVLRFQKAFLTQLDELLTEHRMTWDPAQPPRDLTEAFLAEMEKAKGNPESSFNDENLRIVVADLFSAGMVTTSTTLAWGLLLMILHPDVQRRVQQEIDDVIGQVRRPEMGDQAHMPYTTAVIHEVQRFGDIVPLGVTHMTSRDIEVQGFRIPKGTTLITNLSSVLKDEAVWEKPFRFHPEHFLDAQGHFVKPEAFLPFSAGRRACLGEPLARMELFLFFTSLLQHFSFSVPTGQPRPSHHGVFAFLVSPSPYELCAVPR
T3 sequence (P08684 whole entry): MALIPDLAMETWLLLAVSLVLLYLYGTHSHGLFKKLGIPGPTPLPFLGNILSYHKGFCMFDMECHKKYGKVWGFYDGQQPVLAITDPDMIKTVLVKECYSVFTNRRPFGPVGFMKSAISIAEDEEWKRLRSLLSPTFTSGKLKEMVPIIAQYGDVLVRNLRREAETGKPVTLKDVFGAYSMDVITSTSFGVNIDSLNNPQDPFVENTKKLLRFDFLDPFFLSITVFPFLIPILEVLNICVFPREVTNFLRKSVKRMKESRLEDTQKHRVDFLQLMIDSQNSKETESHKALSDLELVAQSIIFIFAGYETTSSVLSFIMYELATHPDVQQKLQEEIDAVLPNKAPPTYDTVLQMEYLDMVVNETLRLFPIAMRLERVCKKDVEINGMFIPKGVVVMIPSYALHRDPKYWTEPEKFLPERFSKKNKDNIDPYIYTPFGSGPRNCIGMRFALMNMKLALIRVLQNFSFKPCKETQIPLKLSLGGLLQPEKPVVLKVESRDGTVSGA

SMILES	IC50 (mouse CD38)	IC50 [1]	activity at 3 µM (CYP3A4; [3])	activity at 3 µM (CYP3A4; [4])	activity at 10 µM (CYP3A4; [3])	activity at 10 µM (CYP3A4; [4])	activity at 50 µM (CYP3A4; [3])	activity at 50 µM (CYP3A4; [4])	IC50 (CYP3A4; [5])	IC50 (CYP3A4; [6])	IC50 fold shift between 30 min pre-incubation plus NADPH and 0 min preincubation [2]	activity at 3 µM (CYP2D6)	activity at 10 µM (CYP2D6)	activity at 50 µM (CYP2D6)	IC50 (CYP2D6)
CO[C@H]1CC[C@H](NC(=O)c2cc(C3CCOCC3)nc(-c3cncn3C)n2)CC1 [Compound 199, N-((1r,4r)-4-methoxycyclohexyl)-2-(1-methyl-1H-imidazol-5-yl)-6-(tetrahydro-2H-pyran-4-yl)pyrimidine-4-carboxamide]	3.1 nM	2630 nM	93%	98%	92%	96%	79%	79%	> 50000 nM	> 50000 nM	–	–	–	–	–
CO[C@H]1CC[C@H](NC(=O)c2cc(C3(C)COC3)nc(-c3cncn3C)n2)CC1 [Compound 295, N-((1r,4r)-4-methoxycyclohexyl)-2-(1-methyl-1H-imidazol-5-yl)-6-(3-methyloxetan-3-yl)pyrimidine-4-carboxamide]	3.6 nM	2310 nM	92%	103%	93%	106%	101%	86%	> 50000 nM	> 50000 nM	–	95%	79%	36%	< 50000 nM
CO[C@H]1CC[C@H](NC(=O)c2cc(C3CCC(F)(F)CC3)nc(-c3cncn3C)n2)CC1 [Compound 289, 6-(4,4-difluorocyclohexyl)-N-((1r,4r)-4-methoxycyclohexyl)-2-(1-methyl-1H-imidazol-5-yl)pyrimidine-4-carboxamide]	1 nM	1900 nM	147%	100%	148%	97%	96%	72%	> 50000 nM	> 50000 nM	–	98%	98%	64%	> 50000 nM
Cn1cncc1-c1ccnc(C(=O)N[C@H]2CC[C@H](O)CC2)n1 [Compound 256, N-((1r,4r)-4-hydroxycyclohexyl)-4-(1-methyl-1H-imidazol-5-yl)pyrimidine-2-carboxamide]	22.5 nM	3610 nM	88%	96%	97%	99%	82%	95%	> 50000 nM	> 50000 nM	–	89%	87%	56%	> 50000 nM
CC(C)(O)c1ccc(NC(=O)c2nccc(-n3ccnc3)n2)cn1 [Compound 249, N-(6-(2-hydroxypropan-2-yl)pyridin-3-yl)-4-(1H-imidazol-1-yl)pyrimidine-2-carboxamide]	45.2 nM	838 nM	108%	99%	103%	100%	100%	92%	> 50000 nM	> 50000 nM	–	104%	103%	87%	> 50000 nM

The remaining molecules from weak to strong by IC50 (mouse CD38), led by results:

IC50 (mouse CD38)	IC50 [1]	activity at 3 µM (CYP3A4; [3])	activity at 3 µM (CYP3A4; [4])	activity at 10 µM (CYP3A4; [3])	activity at 10 µM (CYP3A4; [4])	activity at 50 µM (CYP3A4; [3])	activity at 50 µM (CYP3A4; [4])	IC50 (CYP3A4; [5])	IC50 (CYP3A4; [6])	IC50 fold shift between 30 min pre-incubation plus NADPH and 0 min preincubation [2]	activity at 3 µM (CYP2D6)	activity at 10 µM (CYP2D6)	activity at 50 µM (CYP2D6)	IC50 (CYP2D6)	SMILES
32 nM	924 nM	96%	104%	89%	106%	73%	85%	> 50000 nM	> 50000 nM	–	103%	86%	47%	< 50000 nM	Cn1cncc1-c1ccnc(C(=O)Nc2ccc(C(C)(C)O)nc2)n1 [Compound 250, N-(6-(2-hydroxypropan-2-yl)pyridin-3-yl)-4-(1-methyl-1H-imidazol-5-yl)pyrimidine-2-carboxamide]
23 nM	1890 nM	–	–	–	–	–	–	–	–	≤ 1.5 fold	–	–	–	–	CO[C@H]1CC[C@H](NC(=O)c2nccc(-c3cncn3C)n2)CC1 [Compound 148, N-((1r,4r)-4-methoxycyclohexyl)-4-(1-methyl-1H-imidazol-5-yl)pyrimidine-2-carboxamide]
